According to US20210154186A1, “COMPOSITIONS AND METHODS FOR INHIBITING DIHYDROOROTATE DEHYDROGENASE” (Clear Creek Bio, Inc., priority 2018, published 2021):
Where two headings read alike, the source gives them in different places.

How the values were obtained:
[1] = test system: solid malignancies; settings: 43 patients; patient with papillary carcinoma of the thyroid; cited from earlier work
[2] = Adverse events observed in subjects receiving brequinar intravenously once weekly; assay type: in vivo, human; settings: 209 subjects, i.v. once week, median dose 1200 mg/m^2
[3] = test system: acute myeloid leukemia (AML); assay: Clinical response of patients with AML to brequinar-containing composition; assay type: in vivo, human
[4] = biological target: DHODH (Homo sapiens, UniProt Q02127); settings: for DHO plasma level threshold achieved: after a dose
Sequence of DHODH (Homo sapiens, UniProt Q02127) (Q02127 whole entry): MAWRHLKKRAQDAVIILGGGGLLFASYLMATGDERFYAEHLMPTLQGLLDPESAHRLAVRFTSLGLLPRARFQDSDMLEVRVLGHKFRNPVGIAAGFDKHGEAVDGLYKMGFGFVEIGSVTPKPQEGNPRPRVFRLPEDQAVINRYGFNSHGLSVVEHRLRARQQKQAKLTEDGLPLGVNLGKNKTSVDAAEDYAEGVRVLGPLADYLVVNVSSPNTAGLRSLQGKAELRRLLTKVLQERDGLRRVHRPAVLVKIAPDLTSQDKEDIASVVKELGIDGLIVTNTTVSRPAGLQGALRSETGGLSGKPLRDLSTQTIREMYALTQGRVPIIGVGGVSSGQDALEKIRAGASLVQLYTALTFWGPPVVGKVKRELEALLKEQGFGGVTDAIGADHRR

[5] = 650 mg/m^2 brequinar (days 1, 8 and 15) with 75 mg/m^2 cisplatin (day 1); cited from earlier work
[6] = mouse model of AML, daily administration of high doses; cited from earlier work
[7] = test system: leukemia-initiating cell activity; settings: mouse models of AML; only when elevated plasma levels are maintained for extended periods; cited from earlier work
[8] = biological target: DHODH (Mus musculus, UniProt O35435); assay: DHO remaining in plasma of mice after brequinar 50 mg/kg (FIG. 6); settings: at about 84 hours
Sequence of DHODH (Mus musculus, UniProt O35435) (O35435 whole entry): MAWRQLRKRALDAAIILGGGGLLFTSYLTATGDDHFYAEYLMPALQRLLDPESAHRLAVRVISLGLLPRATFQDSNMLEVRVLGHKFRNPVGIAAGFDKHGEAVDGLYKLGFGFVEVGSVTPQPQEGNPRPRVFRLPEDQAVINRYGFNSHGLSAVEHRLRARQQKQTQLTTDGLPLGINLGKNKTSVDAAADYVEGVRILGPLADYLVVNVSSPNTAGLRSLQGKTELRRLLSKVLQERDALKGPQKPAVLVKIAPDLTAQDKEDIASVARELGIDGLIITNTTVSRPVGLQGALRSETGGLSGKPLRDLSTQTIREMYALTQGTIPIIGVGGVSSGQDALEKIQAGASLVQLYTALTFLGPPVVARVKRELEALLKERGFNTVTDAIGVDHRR

[9] = Example 9, first patient, threshold 1,600 ng/mL
[10] = Example 10, second patient, threshold 2,900 ng/mL
[11] = Example 11, threshold 133 ng/mL

Cc1c(-c2ccc(-c3ccccc3F)cc2)nc2ccc(F)cc2c1C(=O)O [Brequinar sodium]
tumour response observed [1]: One mixed response

Cc1c(-c2ccc(-c3ccccc3F)cc2)nc2ccc(F)cc2c1C(=O)O [Brequinar, 6-fluoro-2-(2′-fluoro-1,1′ biphenyl-4-yl)-3-methyl-4-quinoline carboxylic acid]
All Body Systems: No. of Patients Experiencing the AE, 5y Max Grade 1 [2]: 36
All Body Systems: No. of Patients Experiencing the AE, 5y Max Grade 2 [2]: 76
All Body Systems: No. of Patients Experiencing the AE, 5y Max Grade 3 [2]: 55
All Body Systems: No. of Patients Experiencing the AE, 5y Max Grade 4 [2]: 35
Anemia: No. of Patients Experiencing the AE, 5y Max Grade 1 [2]: 14
Anemia: No. of Patients Experiencing the AE, 5y Max Grade 2 [2]: 48
Anemia: No. of Patients Experiencing the AE, 5y Max Grade 3 [2]: 23
Anemia: No. of Patients Experiencing the AE, 5y Max Grade 4 [2]: 5
Anorexia: No. of Patients Experiencing the AE, 5y Max Grade 1 [2]: 11
Anorexia: No. of Patients Experiencing the AE, 5y Max Grade 2 [2]: 3
Anorexia: No. of Patients Experiencing the AE, 5y Max Grade 3 [2]: 1
Anorexia: No. of Patients Experiencing the AE, 5y Max Grade 4 [2]: 0
Constipation: No. of Patients Experiencing the AE, 5y Max Grade 1 [2]: 6
Constipation: No. of Patients Experiencing the AE, 5y Max Grade 2 [2]: 2
Constipation: No. of Patients Experiencing the AE, 5y Max Grade 3 [2]: 1
Constipation: No. of Patients Experiencing the AE, 5y Max Grade 4 [2]: 0
Diarrhea: No. of Patients Experiencing the AE, 5y Max Grade 1 [2]: 43
Diarrhea: No. of Patients Experiencing the AE, 5y Max Grade 2 [2]: 21
Diarrhea: No. of Patients Experiencing the AE, 5y Max Grade 3 [2]: 10
Diarrhea: No. of Patients Experiencing the AE, 5y Max Grade 4 [2]: 3
Dyspepsia: No. of Patients Experiencing the AE, 5y Max Grade 1 [2]: 6
Dyspepsia: No. of Patients Experiencing the AE, 5y Max Grade 2 [2]: 1
Dyspepsia: No. of Patients Experiencing the AE, 5y Max Grade 3 [2]: 0
Dyspepsia: No. of Patients Experiencing the AE, 5y Max Grade 4 [2]: 0
Fatigue: No. of Patients Experiencing the AE, 5y Max Grade 1 [2]: 23
Fatigue: No. of Patients Experiencing the AE, 5y Max Grade 2 [2]: 8
Fatigue: No. of Patients Experiencing the AE, 5y Max Grade 3 [2]: 2
Fatigue: No. of Patients Experiencing the AE, 5y Max Grade 4 [2]: 0
Fever: No. of Patients Experiencing the AE, 5y Max Grade 1 [2]: 4
Fever: No. of Patients Experiencing the AE, 5y Max Grade 2 [2]: 7
Fever: No. of Patients Experiencing the AE, 5y Max Grade 3 [2]: 0
Fever: No. of Patients Experiencing the AE, 5y Max Grade 4 [2]: 0
Granulocytopenia: No. of Patients Experiencing the AE, 5y Max Grade 1 [2]: 16
Granulocytopenia: No. of Patients Experiencing the AE, 5y Max Grade 2 [2]: 17
Granulocytopenia: No. of Patients Experiencing the AE, 5y Max Grade 3 [2]: 3
Granulocytopenia: No. of Patients Experiencing the AE, 5y Max Grade 4 [2]: 5
Headache: No. of Patients Experiencing the AE, 5y Max Grade 1 [2]: 4
Headache: No. of Patients Experiencing the AE, 5y Max Grade 2 [2]: 3
Headache: No. of Patients Experiencing the AE, 5y Max Grade 3 [2]: 0
Headache: No. of Patients Experiencing the AE, 5y Max Grade 4 [2]: 0
Infection: No. of Patients Experiencing the AE, 5y Max Grade 1 [2]: 4
Infection: No. of Patients Experiencing the AE, 5y Max Grade 2 [2]: 3
Infection: No. of Patients Experiencing the AE, 5y Max Grade 3 [2]: 0
Infection: No. of Patients Experiencing the AE, 5y Max Grade 4 [2]: 0
Leukopenia: No. of Patients Experiencing the AE, 5y Max Grade 1 [2]: 26
Leukopenia: No. of Patients Experiencing the AE, 5y Max Grade 2 [2]: 31
Leukopenia: No. of Patients Experiencing the AE, 5y Max Grade 3 [2]: 10
Leukopenia: No. of Patients Experiencing the AE, 5y Max Grade 4 [2]: 2
Mucositis: No. of Patients Experiencing the AE, 5y Max Grade 1 [2]: 23
Mucositis: No. of Patients Experiencing the AE, 5y Max Grade 2 [2]: 15
Mucositis: No. of Patients Experiencing the AE, 5y Max Grade 3 [2]: 11
Mucositis: No. of Patients Experiencing the AE, 5y Max Grade 4 [2]: 3
Nausea: No. of Patients Experiencing the AE, 5y Max Grade 1 [2]: 59
Nausea: No. of Patients Experiencing the AE, 5y Max Grade 2 [2]: 19
Nausea: No. of Patients Experiencing the AE, 5y Max Grade 3 [2]: 12
Nausea: No. of Patients Experiencing the AE, 5y Max Grade 4 [2]: 1
Pain Inject Site: No. of Patients Experiencing the AE, 5y Max Grade 1 [2]: 24
Pain Inject Site: No. of Patients Experiencing the AE, 5y Max Grade 2 [2]: 0
Pain Inject Site: No. of Patients Experiencing the AE, 5y Max Grade 3 [2]: 0
Pain Inject Site: No. of Patients Experiencing the AE, 5y Max Grade 4 [2]: 0
Pain, Abdominal: No. of Patients Experiencing the AE, 5y Max Grade 1 [2]: 4
Pain, Abdominal: No. of Patients Experiencing the AE, 5y Max Grade 2 [2]: 3
Pain, Abdominal: No. of Patients Experiencing the AE, 5y Max Grade 3 [2]: 1
Pain, Abdominal: No. of Patients Experiencing the AE, 5y Max Grade 4 [2]: 0
Rash: No. of Patients Experiencing the AE, 5y Max Grade 1 [2]: 26
Rash: No. of Patients Experiencing the AE, 5y Max Grade 2 [2]: 15
Rash: No. of Patients Experiencing the AE, 5y Max Grade 3 [2]: 9
Rash: No. of Patients Experiencing the AE, 5y Max Grade 4 [2]: 3
Somnolence: No. of Patients Experiencing the AE, 5y Max Grade 1 [2]: 7
Somnolence: No. of Patients Experiencing the AE, 5y Max Grade 2 [2]: 2
Somnolence: No. of Patients Experiencing the AE, 5y Max Grade 3 [2]: 0
Somnolence: No. of Patients Experiencing the AE, 5y Max Grade 4 [2]: 0
Stomatitis: No. of Patients Experiencing the AE, 5y Max Grade 1 [2]: 32
Stomatitis: No. of Patients Experiencing the AE, 5y Max Grade 2 [2]: 20
Stomatitis: No. of Patients Experiencing the AE, 5y Max Grade 3 [2]: 7
Stomatitis: No. of Patients Experiencing the AE, 5y Max Grade 4 [2]: 1
Thrombocytopenia: No. of Patients Experiencing the AE, 5y Max Grade 1 [2]: 26
Thrombocytopenia: No. of Patients Experiencing the AE, 5y Max Grade 2 [2]: 31
Thrombocytopenia: No. of Patients Experiencing the AE, 5y Max Grade 3 [2]: 16
Thrombocytopenia: No. of Patients Experiencing the AE, 5y Max Grade 4 [2]: 21
Vomit: No. of Patients Experiencing the AE, 5y Max Grade 1 [2]: 32
Vomit: No. of Patients Experiencing the AE, 5y Max Grade 2 [2]: 24
Vomit: No. of Patients Experiencing the AE, 5y Max Grade 3 [2]: 12
Vomit: No. of Patients Experiencing the AE, 5y Max Grade 4 [2]: 5
clinical response ([3]; Example 9, first patient, […], improvement of extramedullary hematopoiesis, shift to more differentiation in peripheral blasts): positive response
clinical response ([3]; Example 10, second patient, lowering of peripheral blasts, increase in absolute neutrophil count, greater differentiation of peripheral blasts): positive response
clinical response ([3]; Example 11, indicated by a trend towards differentiation of peripheral blasts): positive response
DHO plasma level threshold achieved ([4]; Example 9, first patient with AML): 1,600 ng/mL
time remained above the DHO threshold [4, 9]: 84 h
time to achieve the DHO plasma level threshold [4, 9]: less than 24 hours
DHO plasma level threshold achieved ([4]; Example 10, second patient with AML): 2,900 ng/mL
time remained above the DHO threshold [4, 10]: 84 h
time to achieve the DHO plasma level threshold [4, 10]: < 24 h
DHO plasma level threshold achieved ([4]; Example 11, patient with AML): 133 ng/mL
time remained above the DHO threshold [4, 11]: 84 h
time to achieve the DHO plasma level threshold [4, 11]: less than 2 hours
effect of the combination on individual drug pharmacokinetic parameters [5]: without significant modifications of individual drug pharmacokinetic parameters
toxic effects [6]: weight loss, anemia, and thrombocytopenia
effect on leukemia-initiating cell activity [7]: decreases leukemia-initiating cell activity
concentration of DHO remaining in the plasma [8]: about 100 ng/mL
